{
  "source": "patent US20220177834A1",
  "about": "“STABLE SYSTEM FOR THE IN VITRO CULTURE OF CEREBELLAR GRANULE CELL PRECURSORS (GCP), STABLE METHOD FOR THE IN VITRO CULTURE OF SAID CELLS AND USE OF SAID SYSTEM OR METHOD FOR IN VITRO CULTURE” (UNIVERSITA DEGLI STUDI Dl ROMA \"LA SAPIENZA\", priority 2019, published 2022)",
  "key": {"Shh pathway": {"test_system": "Shh pathway", "assay": "Shh pathway expression (Gli1, N-Myc; Western Blot, real time Q-PCR) in GCP neurosphere cultures", "format": "cell-based, mouse", "conditions": "Western Blot, neurospheres under different culture conditions; SAG 200 nM, EGF 1 μM", "experimental": "(§1) After surgical resection from a mouse on the seventh day of postnatal life (P7) the cerebellum was mechanically shredded in a buffer containing HBSS, glucose and antibiotics, and DNase (at concentrations as defined above) and the individual cells thus obtained were counted and plated at a dilution of 16000 cells/cm^2 on a medium composed of DMEM-F12, glucose, Vitamin A-free B27, insulin, NALC, heparin, antibiotics (at concentrations as defined above) and SAG (200 nM) and EGF ([…]). On this medium the cells can be enriched and maintained for an unlimited time, after periodical dissociation of the spheres with Accutase® (2-3 times per week) and propagation by dilution (to prevent excessive growth and consequent death from nutrient deficiency and hypoxia). The reaction conditions were as described above."}, "GCP cells": {"test_system": "GCP cells", "assay": "Clonogenicity / long-term propagation of GCP neurosphere cultures", "format": "cell-based, mouse", "experimental": "as §1"}},
  "note": "Entries after “also recorded” stand apart in the source; their conditions may differ.",
  "data": [
    {"smiles": "CNC1CCC(N(Cc2cccc(-c3ccncc3)c2)C(=O)c2sc3ccccc3c2Cl)CC1", "note": "(stereo not drawn) [SAG]", "values": [
      {"measurement": "expression of molecular biomarkers of the Shh pathway, Gli1 and N-Myc", "setting": "Shh pathway", "result": "active; also recorded: maintains a high expression of the Shh pathway"},
      {"measurement": "long-term survival of the culture", "setting": "GCP cells; factor alone", "result": "does not ensure long-term survival of the culture"},
      {"measurement": "clonogenic power (average spheres) over time", "setting": "GCP cells; several weeks after being grown", "result": "undergoes progressive decline"}
    ]}
  ]
}
